Experimental data: US3998874A, “Phenylene di-ethers” (Gist-Brocades N.V., priority 1974, dated 1976)
Where a name gives a salt, the structure may show the parent alone.

Experiments:
[1] = system: aconitine-induced arrhythmias; assay: in vivo antagonism of aconitine-induced arrhythmias; set-up: species or system male rats; details: for % protection: vs control; for Dose of aconitine inducing arrhythmias: aconitine infusion 5 μg/kg/min
Experimental: This test was carried out in male rats under urethane anaesthesia as described by B. Vargaftig and J. L. Coignet, Eur. J. Pharmacol., 6, 49 (1969). It was estimated what dose of aconitine in an i.v. infusion (5 μ g/kg/min, rate 0.2 ml/min) would induce arrhythmias. Three minutes before the infusion physiological saline with or without test compound was injected i.v.

[2] = molecular target: T1, β-adrenergic (guinea pig tracheal chain) (Cavia porcellus, UniProt Q8K4Z4); assay: β-adrenergic blocking activity on guinea pig tracheal chain (antagonism of isoprenaline relaxation, pA2); details: vs isoprenaline, R = isopropyl for A-E
T1 construct: determined on the guinea pig tracheal chain; from tissue; host or cells: guinea pig tracheal chain (isolated)
Experimental: The β-adrenergic blocking activity was determined on the guinea pig tracheal chain prepared as described by H. Timmerman and N. G. Scheffer, J. Pharm. […] Int. Pharmacodyn. […] The pA2-values were calculated according to Van Rossum from the parallel shift to the right of the log dose - response curves.

[3] = molecular target: T2, cardiac β-receptors (Cavia porcellus, UniProt H0W3H1); assay: antagonism to cardiac β-receptors on isolated, spontaneously beating right atrium (isoprenaline chronotropism, pA2); details: isolated right atrium guinea pig, vs isoprenaline; R = isopropyl for A-E
T2 construct: on the isolated, spontaneously beating, right atrium of the guinea pig; from tissue; host or cells: guinea pig right atrium (isolated, spontaneously beating)

[4] = system: right atrial muscles from guinea pigs; assay: anti-arrhythmic activity in vitro, ouabain-induced arrhythmia in right atrial muscles; set-up: species or system guinea pig; details: Cavia porcellus; minimal drug concentration (M) preventing any arrhythmia, ouabain 0.5 μg/ml, 37° C, pH 7.4; read-out: Antiarrh. act. -log min. dose (converted)
Experimental: The anti-arrhythmic activity in vitro was determined as follows. Right atrial muscles from guinea pigs were dissected and freed from the appendage. They were suspended in 100 ml of a modified Ringer-Locke solution (g/l: […] Spontaneous contractions were recorded on a Schwarzer ECG (Cardioscript III) using an […] Transducer (8101) in a Wheatstone bridge circuit. Tension was so adjusted that contractions reached maximal amplitude while keeping distortion of the baseline minimal. After a 40-min equilibrium period the test compound was added and for 30 minutes contractile force and rate were recorded at 1-min intervals for 10 seconds. Next, ouabain was added in a concentration of 0.5 μg/ml and force and rate were measured at 1-min intervals over a 60-min period. […] This was confirmed at least once. Control experiments without test compounds were carried out daily.

[5] = hygroscopicity (observation in the synthesis example); format: physicochemical; details: dihydrochloride

T2 sequence (H0W3H1 1-470): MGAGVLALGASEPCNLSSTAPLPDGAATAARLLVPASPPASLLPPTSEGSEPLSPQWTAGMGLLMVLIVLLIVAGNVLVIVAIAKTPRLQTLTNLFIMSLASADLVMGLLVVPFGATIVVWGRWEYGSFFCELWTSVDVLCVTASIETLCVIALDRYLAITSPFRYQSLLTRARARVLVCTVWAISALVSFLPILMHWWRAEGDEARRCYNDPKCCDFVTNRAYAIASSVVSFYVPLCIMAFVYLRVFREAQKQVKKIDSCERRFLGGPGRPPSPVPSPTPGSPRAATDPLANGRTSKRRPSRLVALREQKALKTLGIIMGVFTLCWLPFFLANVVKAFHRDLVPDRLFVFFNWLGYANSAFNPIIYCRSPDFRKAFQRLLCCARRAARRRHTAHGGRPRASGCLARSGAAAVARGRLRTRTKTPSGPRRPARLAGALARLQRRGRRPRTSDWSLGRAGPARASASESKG
T1 sequence (Q8K4Z4 whole entry): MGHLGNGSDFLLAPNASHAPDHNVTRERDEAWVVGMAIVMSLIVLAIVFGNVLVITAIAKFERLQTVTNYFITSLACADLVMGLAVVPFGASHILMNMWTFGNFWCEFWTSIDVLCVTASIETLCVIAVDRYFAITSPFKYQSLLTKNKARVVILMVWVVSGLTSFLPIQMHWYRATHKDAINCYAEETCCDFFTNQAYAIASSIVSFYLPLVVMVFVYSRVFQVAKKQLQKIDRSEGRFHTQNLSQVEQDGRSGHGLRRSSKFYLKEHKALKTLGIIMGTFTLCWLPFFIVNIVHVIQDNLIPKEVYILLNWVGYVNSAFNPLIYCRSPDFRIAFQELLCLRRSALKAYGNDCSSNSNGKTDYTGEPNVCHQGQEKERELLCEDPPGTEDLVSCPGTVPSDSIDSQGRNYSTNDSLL

What does the source list for `CC(C)NCC(O)COc1ccccc1OCC(O)CNC(C)C` (stereo not shown) [A, 1,1'-(o-phenylenedioxy)-bis-[3-(isoproyl-amino)propan-2-ol] dihydrochloride]?
% protection ([1]; 4 mg/kg i.v.): 12.9%; % protection ([1]; 8 mg/kg i.v.): 35.5%; % protection ([1]; 16 mg/kg i.v.): 110.8%; Dose of aconitine inducing arrhythmias ([1]; test compound 4 mg/kg i.v.): 0.0315 mg/kg; Dose of aconitine inducing arrhythmias ([1]; test compound 8 mg/kg i.v.): 0.0378 mg/kg; Dose of aconitine inducing arrhythmias ([1]; test compound 16 mg/kg i.v.): 0.0588 mg/kg; pA2 trachea [2]: 6.73 (±0.05); Kb [3]: 324 nM; minimal effective concentration [4]: 0.0002 M

What does the source list for `CC(C)NCC(O)COc1cccc(C(C)C)c1OCC(O)CNC(C)C` (stereo not shown) [C, 1,1'-[(3-isopropyl-o-phenylene)dioxy]-bis-[3-(isopropylamino)-propan-2-ol]dihydrochloride]?
% protection ([1]; 0.5 mg/kg i.v.): 44.0%; % protection ([1]; 1.0 mg/kg i.v.): 79.6%; % protection ([1]; 2.0 mg/kg i.v.): 135.5%; Dose of aconitine inducing arrhythmias ([1]; test compound 0.5 mg/kg i.v.): 0.0458 mg/kg; Dose of aconitine inducing arrhythmias ([1]; test compound 1.0 mg/kg i.v.): 0.0571 mg/kg; Dose of aconitine inducing arrhythmias ([1]; test compound 2.0 mg/kg i.v.): 0.0749 mg/kg; pA2 trachea [2]: 5.35 (±0.11); Kb [3]: 25700 nM; minimal effective concentration [4]: 1e-05 M

Which results are given for `CC(C)(C)NCC(O)COc1ccccc1OCC(O)CNC(C)(C)C` (stereo not shown) [F, 1,1'-(o-phenylenedioxy)-bis-[3-(tert.-butylamino)-propan-2-ol]dihydrochloride]?
% protection ([1]; 4 mg/kg i.v.): 41.7%; % protection ([1]; 8 mg/kg i.v.): 104.2%; % protection ([1]; 16 mg/kg i.v.): 158.6%; Dose of aconitine inducing arrhythmias ([1]; test compound 4 mg/kg i.v.): 0.034 mg/kg; Dose of aconitine inducing arrhythmias ([1]; test compound 8 mg/kg i.v.): 0.049 mg/kg; Dose of aconitine inducing arrhythmias ([1]; test compound 16 mg/kg i.v.): 0.062 mg/kg

For `Cc1ccc(OCC(O)CNC(C)C)c(OCC(O)CNC(C)C)c1.Cl.Cl` (stereo not shown) [D, 1,1'-[(4-methyl-o-phenylene)dioxy]-bis-[3-(isopropylamino)-propan-2-ol] dihydrochloride], which pA2 trachea [2] is on record?
Its pA2 trachea is 6.66 (±0.09).

And the Kb [3]?
The Kb was 603 nM.

What about the minimal effective concentration [4] of the same molecule?
The minimal effective concentration was 5.01e-05 M.

Which Kb ([2]; read-out: pA2 trachea (converted)) does the source give for `CC(C)NCC(O)COc1ccccc1` (stereo not shown) [G, 1-(isopropylamino)-3-phenoxy-2-propanol, reference compound] here?
Its Kb is 24.5 nM.

What about the Kb [3] of the same molecule?
Its Kb is 0.977 nM.

What about the minimal effective concentration [4] of the same molecule?
Its minimal effective concentration is 0.000302 M.

With `Cc1cccc(OCC(O)CNC(C)C)c1OCC(O)CNC(C)C.Cl.Cl` (stereo not shown) [B, 1,1'-[(3-methyl-o-phenylene)dioxy]-bis-[3-(isopropylamino)propan-2-ol] dihydrochloride] as the molecule, how does the pA2 trachea [2] read?
The pA2 trachea was 5.80 (±0.08).

What about the Kb [3] of the same molecule?
Its Kb is 3310 nM.

What about the minimal effective concentration [4] of the same molecule?
Its minimal effective concentration is 2e-05 M.

Which results are given for `CC(C)NCC(O)COc1ccc(C(C)C)cc1OCC(O)CNC(C)C.Cl.Cl` (stereo not shown) [E, 1,1'-[(4-isopropyl-o-phenylene)dioxy]-bis-[3-(isopropylamino)-propan-2-ol] dihydrochloride]?
pA2 trachea [2]: 6.48 (±0.09); Kb [3]: 2290 nM; hygroscopicity [5]: very hydroscopic; minimal effective concentration [4]: 2e-05 M
